Measurements from patent US6914045B2, “Glycopeptide antibiotics” (Wyeth Holdings Corporation, priority 2001, dated 2005).
Converted amounts (≈) assume the structure as drawn.

Columns and labels:
Experiment in all cases: in vitro antibacterial evaluation, MIC by broth dilution
Format in all cases: cell-based
Staphylococcus sp. = conditions: broth dilution, 18 hours at 35° C.
Outline: (§1)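 Broth dilution per NCCLS M7-A2 in Mueller-Hinton II medium, inoculum 5×10^5 CFU/mL, antibiotic range 64-0.06 μg/mL. MIC taken as lowest concentration inhibiting growth; Gram-positive panel includes recent clinical isolates resistant to methicillin, penicillin and/or vancomycin.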

Enterococcus sp. = conditions: broth dilution, 18 hours at 35° C.
Outline: as §1

Streptococcus sp. = conditions: broth dilution, 18 hours at 35° C.
Outline: as §1

Escherichia coli = conditions: 18 hours at 35° C.

MIC Coagulase Negative Staphylococcus (GC 4547) (Staphylococcus sp.): 2 µg/mL (≈ 1.41 µM)
MIC Coagulase Negative Staphylococcus (GC 4548) (Staphylococcus sp.): 2 µg/mL (≈ 1.41 µM)
MIC Coagulase Negative Staphylococcus (GC 4549) (Staphylococcus sp.): 1 µg/mL (≈ 0.707 µM)
MIC Coagulase Negative Staphylococcus (GC 4551) (Staphylococcus sp.): 4 µg/mL (≈ 2.83 µM)
MIC Coagulase Negative Staphylococcus (GC 6257) (Staphylococcus sp.): 2 µg/mL (≈ 1.41 µM)
MIC Staphylococcus aureus (ATCC 29213) (Staphylococcus sp.): 4 µg/mL (≈ 2.83 µM)
MIC Staphylococcus aureus (GC 1131) (Staphylococcus sp.): 4 µg/mL (≈ 2.83 µM)
MIC Staphylococcus aureus (GC 3051) (Staphylococcus sp.): 4 µg/mL (≈ 2.83 µM)
MIC Staphylococcus aureus (GC 3053) (Staphylococcus sp.): 8 µg/mL (≈ 5.65 µM)
MIC Staphylococcus aureus (GC 4541) (Staphylococcus sp.): 4 µg/mL (≈ 2.83 µM)
MIC Staphylococcus aureus (GC 4542) (Staphylococcus sp.): 4 µg/mL (≈ 2.83 µM)
MIC Staphylococcus aureus (GC 4544) (Staphylococcus sp.): 4 µg/mL (≈ 2.83 µM)
MIC Staphylococcus aureus (GC 4545) (Staphylococcus sp.): 4 µg/mL (≈ 2.83 µM)
MIC Staphylococcus aureus-SMITH (GC 4543) (Staphylococcus sp.): 4 µg/mL (≈ 2.83 µM)
MIC Staphylococcus aureus (ATCC 29213) (Staphylococcus sp.; strain ATCC 29213): 4 µg/mL (≈ 2.83 µM)
MIC Staphylococcus aureus (GC 1131) (Staphylococcus sp.; strain GC 1131): 4 µg/mL (≈ 2.83 µM)
MIC Staphylococcus aureus (GC 3051) (Staphylococcus sp.; strain GC 3051): 4 µg/mL (≈ 2.83 µM)
MIC Staphylococcus aureus (GC 3053) (Staphylococcus sp.; strain GC 3053): 8 µg/mL (≈ 5.65 µM)
MIC Staphylococcus aureus (GC 4541) (Staphylococcus sp.; strain GC 4541): 4 µg/mL (≈ 2.83 µM)
MIC Staphylococcus aureus (GC 4542) (Staphylococcus sp.; strain GC 4542): 4 µg/mL (≈ 2.83 µM)
MIC Staphylococcus aureus-SMITH (GC 4543) (Staphylococcus sp.; strain GC 4543): 4 µg/mL (≈ 2.83 µM)
MIC Staphylococcus aureus (GC 4544) (Staphylococcus sp.; strain GC 4544): 4 µg/mL (≈ 2.83 µM)
MIC Staphylococcus aureus (GC 4545) (Staphylococcus sp.; strain GC 4545): 4 µg/mL (≈ 2.83 µM)
MIC Coagulase Negative Staphylococcus (GC 4547) (Staphylococcus sp.; strain GC 4547): 2 µg/mL (≈ 1.41 µM)
MIC Coagulase Negative Staphylococcus (GC 4548) (Staphylococcus sp.; strain GC 4548): 2 µg/mL (≈ 1.41 µM)
MIC Coagulase Negative Staphylococcus (GC 4549) (Staphylococcus sp.; strain GC 4549): 1 µg/mL (≈ 0.707 µM)
MIC Coagulase Negative Staphylococcus (GC 4551) (Staphylococcus sp.; strain GC 4551): 4 µg/mL (≈ 2.83 µM)
MIC Coagulase Negative Staphylococcus (GC 6257) (Staphylococcus sp.; strain GC 6257): 2 µg/mL (≈ 1.41 µM)
MIC Enterococcus avium (GC 4558) (Enterococcus sp.): 32 µg/mL (≈ 22.6 µM)
MIC Enterococcus faecalis (ATCC 29212) (Enterococcus sp.): 32 µg/mL (≈ 22.6 µM)
MIC Enterococcus faecalis (GC 2242) (Enterococcus sp.): 16 µg/mL (≈ 11.3 µM)
MIC Enterococcus faecalis (GC 2691) (Enterococcus sp.): 32 µg/mL (≈ 22.6 µM)
MIC Enterococcus faecalis (GC 3059) (Enterococcus sp.): 32 µg/mL (≈ 22.6 µM)
MIC Enterococcus faecalis (GC 4552) (Enterococcus sp.): 32 µg/mL (≈ 22.6 µM)
MIC Enterococcus faecalis (GC 4553) (Enterococcus sp.): 32 µg/mL (≈ 22.6 µM)
MIC Enterococcus faecalis (GC 4554) (Enterococcus sp.): 32 µg/mL (≈ 22.6 µM)
MIC Enterococcus faecalis (GC 6189) (Enterococcus sp.): 64 µg/mL (≈ 45.2 µM)
MIC Enterococcus faecium (GC 2243) (Enterococcus sp.): 16 µg/mL (≈ 11.3 µM)
MIC Enterococcus faecium (GC 4556) (Enterococcus sp.): 32 µg/mL (≈ 22.6 µM)
MIC Enterococcus faecium (GC 4557) (Enterococcus sp.): 4 µg/mL (≈ 2.83 µM)
MIC Enterococcus faecalis (ATCC 29212) (Enterococcus sp.; inoculum 5×10^5 CFU/mL, strain ATCC 29212): 32 µg/mL (≈ 22.6 µM)
MIC Enterococcus faecalis (GC 2242) (Enterococcus sp.; inoculum 5×10^5 CFU/mL, strain GC 2242): 16 µg/mL (≈ 11.3 µM)
MIC Enterococcus faecium (GC 2243) (Enterococcus sp.; inoculum 5×10^5 CFU/mL, strain GC 2243): 16 µg/mL (≈ 11.3 µM)
MIC Enterococcus faecalis (GC 2691) (Enterococcus sp.; inoculum 5×10^5 CFU/mL, strain GC 2691): 32 µg/mL (≈ 22.6 µM)
MIC Enterococcus faecalis (GC 3059) (Enterococcus sp.; inoculum 5×10^5 CFU/mL, strain GC 3059): 32 µg/mL (≈ 22.6 µM)
MIC Enterococcus faecalis (GC 4552) (Enterococcus sp.; inoculum 5×10^5 CFU/mL, strain GC 4552): 32 µg/mL (≈ 22.6 µM)
MIC Enterococcus faecalis (GC 4553) (Enterococcus sp.; inoculum 5×10^5 CFU/mL, strain GC 4553): 32 µg/mL (≈ 22.6 µM)
MIC Enterococcus faecalis (GC 4554) (Enterococcus sp.; inoculum 5×10^5 CFU/mL, strain GC 4554): 32 µg/mL (≈ 22.6 µM)
MIC Enterococcus faecium (GC 4556) (Enterococcus sp.; inoculum 5×10^5 CFU/mL, strain GC 4556): 32 µg/mL (≈ 22.6 µM)
MIC Enterococcus faecium (GC 4557) (Enterococcus sp.; inoculum 5×10^5 CFU/mL, strain GC 4557): 4 µg/mL (≈ 2.83 µM)
MIC Enterococcus avium (GC 4558) (Enterococcus sp.; inoculum 5×10^5 CFU/mL, strain GC 4558): 32 µg/mL (≈ 22.6 µM)
MIC Enterococcus faecalis (GC 6189) (Enterococcus sp.; inoculum 5×10^5 CFU/mL, strain GC 6189): 64 µg/mL (≈ 45.2 µM)
MIC Streptococcus agalactiae (GC 4564) (Streptococcus sp.): 2 µg/mL (≈ 1.41 µM)
MIC Streptococcus pneumoniae (ATCC 6301) (Streptococcus sp.): 0.5 µg/mL (≈ 0.353 µM)
MIC Streptococcus pneumoniae (GC 1894) (Streptococcus sp.): 0.5 µg/mL (≈ 0.353 µM)
MIC Streptococcus pneumoniae (GC 4565) (Streptococcus sp.): 1 µg/mL (≈ 0.707 µM)
MIC Streptococcus pyogenes (GC 4563) (Streptococcus sp.): 2 µg/mL (≈ 1.41 µM)
MIC Streptococcus pneumoniae (ATCC 6301) (Streptococcus sp.; inoculum 5×10^5 CFU/mL, strain ATCC 6301): 0.5 µg/mL (≈ 0.353 µM)
MIC Streptococcus pneumoniae (GC 1894) (Streptococcus sp.; inoculum 5×10^5 CFU/mL, strain GC 1894): 0.5 µg/mL (≈ 0.353 µM)
MIC Streptococcus pyogenes (GC 4563) (Streptococcus sp.; inoculum 5×10^5 CFU/mL, strain GC 4563): 2 µg/mL (≈ 1.41 µM)
MIC Streptococcus agalactiae (GC 4564) (Streptococcus sp.; inoculum 5×10^5 CFU/mL, strain GC 4564): 2 µg/mL (≈ 1.41 µM)
MIC Streptococcus pneumoniae (GC 4565) (Streptococcus sp.; inoculum 5×10^5 CFU/mL, strain GC 4565): 1 µg/mL (≈ 0.707 µM)
MIC Escherichia coli (ATCC 25922) (Escherichia coli): >64 µg/mL
MIC Escherichia coli (GC 4559) (Escherichia coli): 64 µg/mL (≈ 45.2 µM)
MIC Escherichia coli (GC 4560) (Escherichia coli): 2 µg/mL (≈ 1.41 µM)
Structure (SMILES): COc1ccc(COCC2OC(OC3C(CO)OC(Oc4ccc(CC5NC(=O)C(C(C)c6ccccc6)NC(=O)CNC(=O)C(CO)NC(=O)C(C(O)C6CNC(=N)N6C6OC(CO)C(O)C(O)C6O)NC(=O)C(C(O)C6CNC(=N)N6)NC5=O)cc4)C(O)C3O)C(O)C(O)C2O)cc1 (stereo not shown) [Example 232]
MIC Staphylococcus haemolyticus (GC 4546) (Staphylococcus sp.): 2 µg/mL (≈ 1.41 µM)
MIC Staphylococcus haemolyticus (GC 4546) (Staphylococcus sp.; strain GC 4546): 2 µg/mL (≈ 1.41 µM)
